Measurements taken from ChEMBL document CHEMBL1201862, “PubChem BioAssay data set” (2004).
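Each compound was tested at five concentrations against cells in 96-well plates for 48 hours. GI50: concentration for 50% inhibition of growth.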 Activity calls are given as the source filed them. Cut-off read from the data, not from the text of the source: active = GI50 up to about 1.1 µM and inactive = higher.

Key:
Test in all cases: DTP human tumour cell line panel, 48 h
EKVX = test system: EKVX
HCC 2998 = test system: HCC 2998
HL-60 = test system: HL-60
HOP-62 = test system: HOP-62
HT-29 = test system: HT-29
IGROV-1 = test system: IGROV-1
K562 = test system: K562
LOX IMVI = test system: LOX IMVI
M14 = test system: M14
NCI-H460 = test system: NCI-H460
SF-295 = test system: SF-295
SK-MEL-2 = test system: SK-MEL-2
SN12C = test system: SN12C
SNB-75 = test system: SNB-75
SR = test system: SR
SW-620 = test system: SW-620
U-251 = test system: U-251
UACC-257 = test system: UACC-257
CAKI-1 = test system: CAKI-1

Measured: GI50

CCCCc1c2c(nc3c1CCCC3O)/C(=C/c1ccccc1)CCC2 (stereo not drawn)
inactive: EKVX 29.6 µM | HCC 2998 9.84 µM | HL-60 17.3 µM | HOP-62 36.5 µM | HT-29 22.1 µM | IGROV-1 45.8 µM | K562 11.4 µM | LOX IMVI 19.7 µM | M14 23.1 µM | NCI-H460 17.1 µM | SF-295 42.3 µM | SK-MEL-2 24.8 µM | SN12C 23.2 µM | SNB-75 35.3 µM | SR 14 µM | SW-620 26.2 µM | U-251 28 µM | UACC-257 30 µM

COC(=O)C1CCC(N2C(=O)CCC2C(=O)OC)=N1 (stereo not drawn)
inactive: CAKI-1 > 100 µM | EKVX > 100 µM | HCC 2998 > 100 µM | HL-60 > 100 µM | HOP-62 > 100 µM | HT-29 > 100 µM | IGROV-1 > 100 µM | K562 > 100 µM | LOX IMVI > 100 µM | M14 > 100 µM | NCI-H460 > 100 µM | SF-295 > 100 µM | SK-MEL-2 > 100 µM | SN12C > 100 µM | SNB-75 > 100 µM | SW-620 > 100 µM | U-251 > 100 µM | UACC-257 > 100 µM

CC(=O)c1ccc(NC(=O)C(=O)CC(=O)c2sc(-n3nc(-c4ccccc4)cc3-c3ccccc3)nc2C)cc1
inactive: CAKI-1 > 100 µM | EKVX > 100 µM | HCC 2998 > 100 µM | HL-60 > 100 µM | HOP-62 > 100 µM | HT-29 > 100 µM | IGROV-1 > 100 µM | K562 > 100 µM | LOX IMVI > 100 µM | M14 > 100 µM | NCI-H460 > 100 µM | SF-295 > 100 µM | SK-MEL-2 > 100 µM | SN12C > 100 µM | SR > 100 µM | SW-620 > 100 µM | U-251 > 100 µM | UACC-257 > 100 µM

Cc1ccc(S(=O)(=O)NNC(=O)c2sc(-c3nc(C)c(C(=O)NNS(=O)(=O)c4ccc(C)cc4)s3)nc2C)cc1
inactive: CAKI-1 24 µM | EKVX > 100 µM | HCC 2998 > 100 µM | HL-60 48.5 µM | HOP-62 > 100 µM | HT-29 57.3 µM | IGROV-1 > 100 µM | K562 45.9 µM | LOX IMVI > 100 µM | M14 > 100 µM | NCI-H460 > 100 µM | SF-295 > 100 µM | SK-MEL-2 > 100 µM | SN12C > 100 µM | SNB-75 58.3 µM | SW-620 > 100 µM | U-251 > 100 µM | UACC-257 > 100 µM

CCN(CC)CCNc1ccc2ncn3c4ccccc4c(=O)c1c23
inactive: CAKI-1 2.06 µM | HL-60 5.74 µM | HOP-62 5.81 µM | HT-29 2.2 µM | IGROV-1 3.83 µM | K562 8.49 µM | LOX IMVI 1.64 µM | M14 4.91 µM | NCI-H460 2.26 µM | SF-295 3.58 µM | SK-MEL-2 5.01 µM | SN12C 5.36 µM | SR 1.63 µM | SW-620 2.52 µM | U-251 4.52 µM | UACC-257 4.23 µM

O=C(N/C(=C\c1ccccc1Cl)c1nc2ccccc2[nH]1)c1ccccc1
inactive: CAKI-1 29.5 µM | EKVX 21.3 µM | HCC 2998 29.4 µM | HL-60 25.7 µM | HT-29 24.3 µM | IGROV-1 25.1 µM | K562 24.5 µM | M14 19.8 µM | SF-295 17 µM | SK-MEL-2 23.5 µM | SN12C 16.7 µM | SR 23.3 µM | SW-620 27.5 µM | U-251 27 µM

COC(=O)CCC(=O)Nc1cc(Cl)ccc1Cl
inactive: CAKI-1 > 100 µM | EKVX > 100 µM | HCC 2998 > 100 µM | HL-60 > 100 µM | HOP-62 > 100 µM | HT-29 > 100 µM | IGROV-1 > 100 µM | K562 > 100 µM | LOX IMVI > 100 µM | M14 > 100 µM | NCI-H460 > 100 µM | SF-295 > 100 µM | SK-MEL-2 > 100 µM | SN12C > 100 µM | SR > 100 µM | SW-620 > 100 µM | U-251 > 100 µM | UACC-257 > 100 µM

O=C(NO)c1ccc(O)c(O)c1
inactive: CAKI-1 > 100 µM | EKVX > 100 µM | HCC 2998 > 100 µM | HL-60 9.77 µM | HOP-62 > 100 µM | HT-29 > 100 µM | IGROV-1 > 100 µM | K562 26.5 µM | LOX IMVI > 10 µM | M14 > 100 µM | NCI-H460 70.3 µM | SF-295 29.5 µM | SN12C > 100 µM | SNB-75 > 100 µM | SR 36.4 µM | SW-620 47.6 µM | U-251 > 100 µM | UACC-257 > 100 µM
